# Source: PubChem BioAssay (NCI)
#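 Results reflect a 48-hour exposure of cells in 96-well plates to compound at five concentrations. GI50 marks 50% less growth. TGI: total growth inhibition.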
# Key:
# Test in all cases: NCI tumour cell line growth inhibition, 48 h
# [1] = tested on: 786-0 renal
# [2] = tested on: A549 NSCLC
# [3] = tested on: ACHN renal
# [4] = tested on: CAKI-1 renal
# [5] = tested on: CCRF-CEM leukemia
# [6] = tested on: COLO 205 colon
# [7] = tested on: DU-145 prostate
# [8] = tested on: EKVX NSCLC
# [9] = tested on: HCC-2998 colon
# [10] = tested on: HCT-116 colon
# [11] = tested on: HCT-15 colon
# [12] = tested on: HL-60(TB) leukemia
# [13] = tested on: HOP-62 NSCLC
# [14] = tested on: HOP-92 NSCLC
# [15] = tested on: HS 578T breast
# [16] = tested on: HT29 colon
# [17] = tested on: IGROV1 ovarian
# [18] = tested on: K-562 leukemia
# [19] = tested on: KM12 colon
# [20] = tested on: LOX IMVI melanoma
# [21] = tested on: M14 melanoma
# [22] = tested on: MALME-3M melanoma
# [23] = tested on: MCF7 breast
# [24] = tested on: MDA-MB-231 breast
# [25] = tested on: MDA-MB-435
# [26] = tested on: MOLT-4 leukemia
# [27] = tested on: NCI-H226 lung
# [28] = tested on: NCI-H23 lung
# [29] = tested on: NCI-H460 lung
# [30] = tested on: NCI-H522 lung
# [31] = tested on: NCI/ADR-RES ovarian
# [32] = tested on: OVCAR-3 ovarian
# [33] = tested on: OVCAR-4 ovarian
# [34] = tested on: OVCAR-5 ovarian
# [35] = tested on: OVCAR-8 ovarian
# [36] = tested on: PC-3 prostate
# [37] = tested on: RPMI-8226 leukemia
# [38] = tested on: RXF 393 renal
# [39] = tested on: SF-268 CNS
# [40] = tested on: SF-295 CNS
# [41] = tested on: SF-539 CNS
# [42] = tested on: SK-MEL-2 melanoma
# [43] = tested on: SK-MEL-28 melanoma
# [44] = tested on: SK-MEL-5 melanoma
# [45] = tested on: SK-OV-3 ovarian
# [46] = tested on: SN12C renal
# [47] = tested on: SNB-19 CNS
# [48] = tested on: SNB-75 CNS
# [49] = tested on: SR leukemia
# [50] = tested on: SW-620 colon
# [51] = tested on: T-47D breast
# [52] = tested on: TK-10 renal
# [53] = tested on: U251 CNS
# [54] = tested on: UACC-257 melanoma
# [55] = tested on: UACC-62 melanoma
# [56] = tested on: A498 renal
# [57] = tested on: BT-549 breast
# [58] = tested on: UO-31 renal
smiles,measurement,setting,value
OCSc1nn(CO)c(=S)s1,TGI,[1],58.9 µM
same,TGI,[2],> 100 µM
same,TGI,[3],68.1 µM
same,TGI,[4],> 100 µM
same,TGI,[5],55.1 µM
same,TGI,[6],67.8 µM
same,TGI,[7],57.6 µM
same,TGI,[8],89.3 µM
same,TGI,[9],43.3 µM
same,TGI,[10],55.4 µM
same,TGI,[11],37.8 µM
same,TGI,[12],54 µM
same,TGI,[13],45.2 µM
same,TGI,[14],41.7 µM
same,TGI,[15],42.4 µM
same,TGI,[16],75.3 µM
same,TGI,[17],47.8 µM
same,TGI,[18],43.4 µM
same,TGI,[19],40.4 µM
same,TGI,[20],40.7 µM
same,TGI,[21],38.2 µM
same,TGI,[22],44.8 µM
same,TGI,[23],35.9 µM
same,TGI,[24],68.1 µM
same,TGI,[25],34.3 µM
same,TGI,[26],51.6 µM
same,TGI,[27],92.9 µM
same,TGI,[28],40.5 µM
same,TGI,[29],54.5 µM
same,TGI,[30],35.3 µM
same,TGI,[31],45.1 µM
same,TGI,[32],48.4 µM
same,TGI,[33],47 µM
same,TGI,[34],> 100 µM
same,TGI,[35],32.8 µM
same,TGI,[36],59.6 µM
same,TGI,[37],70.6 µM
same,TGI,[38],34.3 µM
same,TGI,[39],50.5 µM
same,TGI,[40],71.9 µM
same,TGI,[41],56.8 µM
same,TGI,[42],45.2 µM
same,TGI,[43],49.9 µM
same,TGI,[44],> 100 µM
same,TGI,[45],92.7 µM
same,TGI,[46],49.4 µM
same,TGI,[47],59.6 µM
same,TGI,[48],67.1 µM
same,TGI,[49],11.9 µM
same,TGI,[50],> 100 µM
same,TGI,[51],66.6 µM
same,TGI,[52],> 100 µM
same,TGI,[53],56.8 µM
same,TGI,[54],48.1 µM
same,TGI,[55],34.8 µM
C=C1N(C)c2ccc(Cl)cc2C1(C)C,GI50,[1],16.9 µM
same,TGI,[1],96.1 µM
same,GI50,[56],11 µM
same,TGI,[56],43.6 µM
same,GI50,[2],17.4 µM
same,TGI,[2],> 100 µM
same,GI50,[3],24.6 µM
same,TGI,[3],> 100 µM
same,GI50,[57],3.35 µM
same,TGI,[57],22.3 µM
same,GI50,[4],19.2 µM
same,TGI,[4],68.5 µM
same,GI50,[5],12.9 µM
same,TGI,[5],69.2 µM
same,GI50,[6],2100 nM
same,TGI,[6],4.36 µM
same,GI50,[7],6.66 µM
same,TGI,[7],> 100 µM
same,GI50,[8],4.59 µM
same,TGI,[8],> 100 µM
same,GI50,[9],6.25 µM
same,TGI,[9],> 100 µM
same,GI50,[10],3.52 µM
same,TGI,[10],17.5 µM
same,GI50,[11],29.1 µM
same,TGI,[11],> 100 µM
same,GI50,[12],2330 nM
same,TGI,[12],8.85 µM
same,GI50,[13],11.2 µM
same,TGI,[13],72.2 µM
same,GI50,[14],3.72 µM
same,TGI,[14],22.9 µM
same,GI50,[15],6.34 µM
same,TGI,[15],> 100 µM
same,GI50,[16],3.24 µM
same,TGI,[16],18.6 µM
same,GI50,[17],8.35 µM
same,TGI,[17],65.4 µM
same,GI50,[18],3.75 µM
same,TGI,[18],> 100 µM
same,GI50,[19],3.95 µM
same,TGI,[19],13.7 µM
same,GI50,[20],6.98 µM
same,TGI,[20],55.5 µM
same,GI50,[21],5.73 µM
same,TGI,[21],24.5 µM
same,GI50,[22],3.32 µM
same,TGI,[22],20.5 µM
same,GI50,[23],6.65 µM
same,TGI,[23],58.7 µM
same,GI50,[24],16.7 µM
same,TGI,[24],57.4 µM
same,GI50,[25],3.7 µM
same,TGI,[25],23.5 µM
same,GI50,[26],6.94 µM
same,TGI,[26],55 µM
same,GI50,[27],16.4 µM
same,TGI,[27],> 100 µM
same,GI50,[28],5.47 µM
same,TGI,[28],> 100 µM
same,GI50,[29],4.94 µM
same,TGI,[29],36.1 µM
same,GI50,[30],5.91 µM
same,TGI,[30],74.8 µM
same,GI50,[31],34.8 µM
same,TGI,[31],> 100 µM
same,GI50,[32],4.95 µM
same,TGI,[32],38.2 µM
same,GI50,[33],4.83 µM
same,TGI,[33],> 100 µM
same,GI50,[34],31 µM
same,TGI,[34],> 100 µM
same,GI50,[35],9.67 µM
same,TGI,[35],> 100 µM
same,GI50,[37],2560 nM
same,TGI,[37],10.4 µM
same,GI50,[38],6.41 µM
same,TGI,[38],35.8 µM
same,GI50,[39],5.71 µM
same,TGI,[39],> 100 µM
same,GI50,[40],4.17 µM
same,TGI,[40],38.5 µM
same,GI50,[41],19.6 µM
same,TGI,[41],62.5 µM
same,GI50,[42],13.5 µM
same,TGI,[42],42.8 µM
same,GI50,[43],19.7 µM
same,TGI,[43],> 100 µM
same,GI50,[44],4.32 µM
same,TGI,[44],15 µM
same,GI50,[45],18.1 µM
same,TGI,[45],65.4 µM
same,GI50,[46],5.38 µM
same,TGI,[46],38.1 µM
same,GI50,[47],8.75 µM
same,TGI,[47],> 100 µM
same,GI50,[48],4.25 µM
same,TGI,[48],77.3 µM
same,GI50,[49],2740 nM
same,TGI,[49],8.94 µM
same,GI50,[50],5.8 µM
same,TGI,[50],> 100 µM
same,GI50,[51],3.54 µM
same,TGI,[51],> 100 µM
same,GI50,[52],14.7 µM
same,TGI,[52],69.2 µM
same,GI50,[53],3.68 µM
same,TGI,[53],57.2 µM
same,GI50,[54],6.84 µM
same,TGI,[54],60.5 µM
same,GI50,[55],11.7 µM
same,TGI,[55],29.5 µM
same,GI50,[58],27.9 µM
same,TGI,[58],> 100 µM
